# Data published in ChEMBL document CHEMBL5143714, “Discovery of BMS-986339, a Pharmacologically Differentiated Farnesoid X Receptor Agonist for the Treatment of Nonalcoholic Steatohepatitis” (J Med Chem, 2022).
# Key:
# [1] = target: T1, Bile acid receptor (Homo sapiens) (UniProt Q96RI1); assay: Agonist activity at LBD-fused human FXR in HEK293 cells incubated for 30 min by envision plate reader method relative to GW2064; format: cell-based; details: filed as agonist
# T1 sequence (whole entry): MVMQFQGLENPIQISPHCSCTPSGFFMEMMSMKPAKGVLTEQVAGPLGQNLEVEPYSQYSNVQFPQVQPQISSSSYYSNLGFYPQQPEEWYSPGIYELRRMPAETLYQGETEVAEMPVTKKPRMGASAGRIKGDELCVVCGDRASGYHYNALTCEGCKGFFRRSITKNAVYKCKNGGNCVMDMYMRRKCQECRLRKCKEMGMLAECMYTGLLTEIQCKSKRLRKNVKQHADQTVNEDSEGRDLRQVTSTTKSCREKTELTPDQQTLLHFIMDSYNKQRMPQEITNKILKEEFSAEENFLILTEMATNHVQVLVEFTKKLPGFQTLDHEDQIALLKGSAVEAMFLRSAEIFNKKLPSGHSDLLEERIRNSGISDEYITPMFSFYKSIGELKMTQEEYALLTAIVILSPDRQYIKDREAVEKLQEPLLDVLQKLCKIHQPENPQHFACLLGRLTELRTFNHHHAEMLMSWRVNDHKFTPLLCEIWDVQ
# [2] = Metabolic stability in mouse liver microsome assessed as parent compound remaining at […] measured after 10 mins; format: ADME; details: liver microsomes, read-out: Stability
# [3] = target: Cytochrome P450 2C19 (Homo sapiens, UniProt P33261); assay: Inhibition of recombinant CYP2C19 (unknown origin) using fluorogenic substrate preincubated for 15 min followed by NADPH addition measured after 2 hrs by fluorescence method; format: ADME
# Chain of Cytochrome P450 2C19 (P33261 whole entry): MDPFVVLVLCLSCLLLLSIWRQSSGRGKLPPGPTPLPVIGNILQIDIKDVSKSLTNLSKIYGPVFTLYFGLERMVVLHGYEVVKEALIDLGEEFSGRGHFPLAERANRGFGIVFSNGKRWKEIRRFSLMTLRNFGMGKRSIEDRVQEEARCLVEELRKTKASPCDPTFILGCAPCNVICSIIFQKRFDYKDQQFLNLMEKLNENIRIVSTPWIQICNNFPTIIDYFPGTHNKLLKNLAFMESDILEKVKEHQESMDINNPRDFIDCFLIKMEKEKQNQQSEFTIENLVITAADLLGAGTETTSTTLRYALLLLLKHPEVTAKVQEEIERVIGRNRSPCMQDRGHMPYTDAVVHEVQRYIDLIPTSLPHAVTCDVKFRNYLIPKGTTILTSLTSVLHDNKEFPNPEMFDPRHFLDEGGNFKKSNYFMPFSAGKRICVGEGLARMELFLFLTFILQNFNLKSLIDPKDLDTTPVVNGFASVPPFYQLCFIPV
# [4] = Clearance in C57BL6 mouse at 1 mg/kg, iv; format: ADME, organism-based; details: in vivo
# [5] = Volume of distribution at steady state in C57BL6 mouse at 1 mg/kg, iv; format: ADME, organism-based; details: in vivo, read-out: Vdss
# [6] = AUC (total) in C57BL6 mouse at 1 mg/kg, iv; format: ADME, organism-based; design: dose 1 mg/kg, route iv; details: in vivo
# [7] = Half life in C57BL6 mouse at 1 mg/kg, iv; format: ADME, organism-based; details: in vivo
# [8] = AUC (total) in Sprague-Dawley rat at 2 mg/kg, po; format: ADME, organism-based; design: dose 2 mg/kg, route po; details: in vivo
# [9] = Half life in Sprague-Dawley rat at 1 mg/kg, iv; format: ADME, organism-based; details: in vivo
# [10] = test system: Mus musculus; assay: Antifibrotic activity against bile duct ligation-induced liver cholestasis C57BL/6NTac mouse model assessed as reduction in hydroxyproline level in liver administered orally as single dose for 9 days and measured after 24 hrs post-last dose by picrosirius red staining method; format: functional, organism-based; details: dose 0.3-10 mg/kg, route po, time 9.0 day, DDE = dose-dependent effect
# [11] = target: Cytochrome P450 3A4 (Homo sapiens, UniProt P08684); assay: Inhibition of CYP3A4 in human liver microsomes using fluorogenic substrate preincubated for 15 min followed by NADPH addition measured after 2 hrs by fluorescence based assay; format: ADME, Microsome
# Chain of Cytochrome P450 3A4 (P08684 whole entry): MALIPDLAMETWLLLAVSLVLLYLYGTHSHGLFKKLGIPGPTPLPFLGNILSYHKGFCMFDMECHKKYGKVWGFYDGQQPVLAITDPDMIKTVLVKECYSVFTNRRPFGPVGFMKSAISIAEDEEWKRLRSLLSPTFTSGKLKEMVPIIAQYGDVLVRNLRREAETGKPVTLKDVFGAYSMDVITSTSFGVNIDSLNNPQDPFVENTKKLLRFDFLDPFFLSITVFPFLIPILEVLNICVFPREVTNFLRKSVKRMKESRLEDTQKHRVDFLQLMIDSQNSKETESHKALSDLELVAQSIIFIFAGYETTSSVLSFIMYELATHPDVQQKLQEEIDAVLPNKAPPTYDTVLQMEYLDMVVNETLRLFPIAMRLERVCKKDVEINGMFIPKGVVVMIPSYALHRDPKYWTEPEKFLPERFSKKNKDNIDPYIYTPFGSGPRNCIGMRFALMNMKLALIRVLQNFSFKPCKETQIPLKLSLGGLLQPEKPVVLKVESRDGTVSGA
# [12] = target: T2, Cytochrome P450 2C8 (Homo sapiens, UniProt P10632); assay: Inhibition of CYP2C8 in human liver microsomes using fluorogenic substrate preincubated for 15 min followed by NADPH addition measured after 2 hrs by fluorescence based assay; format: ADME, Microsome
# T2 sequence (P10632 whole entry): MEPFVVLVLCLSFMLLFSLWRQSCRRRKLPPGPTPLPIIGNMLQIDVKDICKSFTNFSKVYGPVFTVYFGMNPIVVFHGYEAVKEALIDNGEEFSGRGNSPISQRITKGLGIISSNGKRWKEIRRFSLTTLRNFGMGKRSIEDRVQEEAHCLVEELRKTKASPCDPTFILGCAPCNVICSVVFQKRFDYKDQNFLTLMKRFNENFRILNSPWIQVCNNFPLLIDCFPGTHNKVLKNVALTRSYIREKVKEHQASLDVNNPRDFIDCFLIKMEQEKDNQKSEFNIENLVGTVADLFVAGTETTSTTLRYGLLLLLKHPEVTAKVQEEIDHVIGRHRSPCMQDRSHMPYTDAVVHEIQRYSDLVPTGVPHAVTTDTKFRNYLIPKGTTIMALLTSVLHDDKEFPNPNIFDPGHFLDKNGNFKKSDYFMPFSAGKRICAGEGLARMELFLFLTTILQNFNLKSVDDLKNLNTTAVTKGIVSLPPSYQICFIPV
# [13] = target: Cytochrome P450 2C9 (Homo sapiens, UniProt P11712); assay: Inhibition of CYP2C9 in human liver microsomes using fluorogenic substrate preincubated for 15 min followed by NADPH addition measured after 2 hrs by fluorescence based assay; format: ADME, Microsome
# Chain of Cytochrome P450 2C9 (P11712 whole entry): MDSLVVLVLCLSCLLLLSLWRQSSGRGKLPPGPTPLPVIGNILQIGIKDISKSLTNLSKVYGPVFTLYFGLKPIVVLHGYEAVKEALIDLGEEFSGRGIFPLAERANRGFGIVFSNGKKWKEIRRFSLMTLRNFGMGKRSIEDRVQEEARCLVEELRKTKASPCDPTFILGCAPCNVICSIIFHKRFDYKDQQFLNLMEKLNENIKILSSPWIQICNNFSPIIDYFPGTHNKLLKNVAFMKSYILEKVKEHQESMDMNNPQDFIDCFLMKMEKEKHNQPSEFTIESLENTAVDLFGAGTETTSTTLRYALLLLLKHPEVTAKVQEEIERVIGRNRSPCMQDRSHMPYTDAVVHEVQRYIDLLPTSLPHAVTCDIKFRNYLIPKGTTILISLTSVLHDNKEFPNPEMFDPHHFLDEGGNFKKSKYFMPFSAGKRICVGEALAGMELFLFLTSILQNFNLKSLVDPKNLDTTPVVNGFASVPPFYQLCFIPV
# [14] = target: T3, Solute carrier organic anion transporter family member 1B3 (Homo sapiens, UniProt Q9NPD5); assay: Inhibition of OATP1B3 (unknown origin)
# T3 sequence (Q9NPD5 whole entry): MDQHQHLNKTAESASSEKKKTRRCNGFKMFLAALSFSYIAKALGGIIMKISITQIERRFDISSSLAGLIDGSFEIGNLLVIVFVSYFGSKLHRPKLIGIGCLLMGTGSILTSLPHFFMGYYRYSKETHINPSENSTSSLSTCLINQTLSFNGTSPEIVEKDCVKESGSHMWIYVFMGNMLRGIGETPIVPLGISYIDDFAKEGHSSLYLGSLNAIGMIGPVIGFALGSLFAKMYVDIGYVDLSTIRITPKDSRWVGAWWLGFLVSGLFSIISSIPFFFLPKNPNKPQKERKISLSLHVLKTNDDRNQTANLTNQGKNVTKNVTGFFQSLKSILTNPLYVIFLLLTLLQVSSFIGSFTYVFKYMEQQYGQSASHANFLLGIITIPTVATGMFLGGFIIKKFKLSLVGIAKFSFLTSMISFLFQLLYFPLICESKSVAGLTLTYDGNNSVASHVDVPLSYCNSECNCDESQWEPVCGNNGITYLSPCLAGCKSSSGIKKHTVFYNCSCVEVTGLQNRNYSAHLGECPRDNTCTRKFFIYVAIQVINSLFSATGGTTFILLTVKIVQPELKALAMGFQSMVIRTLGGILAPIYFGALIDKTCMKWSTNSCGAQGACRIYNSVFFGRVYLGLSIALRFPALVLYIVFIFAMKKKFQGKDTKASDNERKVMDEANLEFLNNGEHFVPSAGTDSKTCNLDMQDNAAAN
# [15] = target: Bile salt export pump (Homo sapiens, UniProt O95342); assay: Inhibition of BSEP (unknown origin)
# Chain of Bile salt export pump (O95342 whole entry): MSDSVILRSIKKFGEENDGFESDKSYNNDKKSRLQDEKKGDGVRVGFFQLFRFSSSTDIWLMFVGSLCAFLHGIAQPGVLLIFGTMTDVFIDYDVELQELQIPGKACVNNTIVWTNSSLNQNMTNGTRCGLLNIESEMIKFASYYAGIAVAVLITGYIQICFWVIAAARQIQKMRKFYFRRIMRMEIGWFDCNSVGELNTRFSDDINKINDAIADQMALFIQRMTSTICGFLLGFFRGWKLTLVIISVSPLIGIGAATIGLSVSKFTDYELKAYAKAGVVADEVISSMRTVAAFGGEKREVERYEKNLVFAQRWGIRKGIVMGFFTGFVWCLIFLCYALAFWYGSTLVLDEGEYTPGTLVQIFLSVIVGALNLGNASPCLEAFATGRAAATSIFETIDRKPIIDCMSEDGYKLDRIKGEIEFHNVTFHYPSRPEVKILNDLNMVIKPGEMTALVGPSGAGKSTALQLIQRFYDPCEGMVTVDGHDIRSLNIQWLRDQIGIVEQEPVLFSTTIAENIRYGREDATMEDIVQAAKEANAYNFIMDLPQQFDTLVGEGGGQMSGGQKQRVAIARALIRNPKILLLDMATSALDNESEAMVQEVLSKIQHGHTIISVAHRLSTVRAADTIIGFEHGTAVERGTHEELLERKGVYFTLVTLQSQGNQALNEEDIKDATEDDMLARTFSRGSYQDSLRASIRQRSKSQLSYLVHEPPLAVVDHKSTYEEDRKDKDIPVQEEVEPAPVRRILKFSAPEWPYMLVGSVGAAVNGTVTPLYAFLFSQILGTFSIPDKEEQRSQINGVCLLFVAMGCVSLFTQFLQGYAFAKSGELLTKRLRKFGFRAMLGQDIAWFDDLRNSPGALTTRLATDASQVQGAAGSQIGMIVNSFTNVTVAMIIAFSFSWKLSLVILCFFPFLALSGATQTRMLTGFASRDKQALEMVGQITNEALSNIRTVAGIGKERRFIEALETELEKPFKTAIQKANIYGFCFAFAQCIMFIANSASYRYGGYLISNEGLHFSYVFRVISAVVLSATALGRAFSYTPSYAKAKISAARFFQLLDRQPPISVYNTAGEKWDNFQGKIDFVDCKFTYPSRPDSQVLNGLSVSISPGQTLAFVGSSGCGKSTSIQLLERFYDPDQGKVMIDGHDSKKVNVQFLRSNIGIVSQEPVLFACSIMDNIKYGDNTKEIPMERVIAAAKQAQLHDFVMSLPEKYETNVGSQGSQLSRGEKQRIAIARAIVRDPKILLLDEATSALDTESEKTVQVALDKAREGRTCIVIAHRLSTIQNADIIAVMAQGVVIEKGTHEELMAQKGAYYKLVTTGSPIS
# [16] = test system: Bile acid receptor (Homo sapiens); assay: Agonist activity at human FXR expressed in HEK293 cells coexpressing IBABP relative to GW2064; details: filed as agonist
smiles,measurement,setting,value
CC(C)(O)c1ccc(-c2cccc(N(CC34CCC(c5noc(C(C)(C)F)n5)(CC3)CC4)C(=O)[C@H]3C[C@](O)(C(F)(F)F)C3)c2)cc1,Emax,[1],189%
same,remaining at 10 min,[2],90%
same,IC50,[3],7 µM
same,clearance,[4],1.6 mL/min/kg
same,Vd,[5],2.2 L/kg
same,AUC,[6],16.4 µM·h
same,half-life,[7],16 h
same,AUC,[8],5.8 µM·h
same,half-life,[9],18 h
same,Activity,[10],Dde
same,IC50,[11],> 20 µM
same,IC50,[12],> 20 µM
same,IC50,[13],8 µM
same,IC50,[14],13.5 µM
same,IC50,[15],1.4 µM
same,Emax,[16],80%
